Counter-ions that a name gives are not always drawn.
Tests used:
unsensitized BN rats = assay: HDM extract challenge in unsensitized (naive) BN rats, duration of protection; assay type: in vivo
[1] = test system: rats sensitized to the HDM allergen extract; assay: HDM extract challenge in rats sensitized to the HDM allergen extract (BAL cells and mediators); assay type: in vivo, BN rats; conditions: single i.t. aerosol dose 2 h before (15 μg/kg compound 1, 46 μg/kg compound 2), BAL 48 h
Excerpt: Control animals received saline vehicle treatment.

plasma stability (rat) = assay type: in vitro ADME
plasma stability (human) = assay type: in vitro ADME
thermodynamic solubility = assay type: physicochemical; conditions: thermodynamic from solid
rat hepatocytes = assay: hepatocyte stability (rat); assay type: in vitro ADME
human hepatocytes = assay: hepatocyte stability (human); assay type: in vitro ADME
[2] = test system: rat alveolar macrophage line NR8383; assay: Cellular stability in macrophages; assay type: in vitro ADME; conditions: 100 nM compound
Procedure: (§1) Cellular Stability of Compounds
(§2) The cellular stability of compounds in vitro was tested using rat airway epithelial cell line L2 and rat alveolar macrophage line NR8383 (ATCC©CRL-2192™). Assays were performed in replicate and the data expressed as mean ± s.e. mean. L2 cells were cultured to confluence in T25 flasks or 24 -well plates using Kaighn’s modification of Ham’s F12 medium (F12K). Cells were prepared for assay by washing 3 times with serum-free F12K. NR8383 Airway macrophages were grown in suspension culture in F12K, collected by centrifugation, washed in serum-free medium and aliquoted into test plates (1.4 x 10^6 cells/well). Both cell lines were treated with ADI compounds (100 nM) in serum -free F12K in a 5% CO 2 environment at 37 °C. Samples were removed for quantitative analysis by LC -MS-MS using appropriate multiple reaction monitoring transitions for each analyte. […]
(§3) n-Octanol (0.7 mL), pre -saturated with 10 mM PBS, pH7.4, was added to test compound (~1 mg) in a 2 mL HPLC vial followed by PBS (0. 7 mL), which had been pre -saturated with n -octanol. The mixture was shaken for 90 min before centrifugation for 10 min at 4,000 rpm. The upper organic layer (0.2 mL) and the aqueous layer (0.5 mL) were removed for analysis by LC-MS. Peak identity was confirmed by mass spectrometry and concentration assessed spectrophotometrically using a diode array detector. The log

Pharmacokinetics in rats = conditions: rat p.o.
Procedure: Soluble formulations were developed and verified by high performance liquid chromatography (HPLC)
1 mL/kg) and p.o. (5 mg/kg, 5 mL/kg) in non-fasted Sprague-Dawley rats (male, 200-300 g, 10-16 weeks
of age, groups of three animals per route per compound). Timed blood samples were taken after dosing
and plasma prepared for LC-MS-MS quantification of the test substance after inclusion of an internal
standard. A non -compartmental model in WinNonlin software was used to calculate pharmacokinetic

[3] = test system: rat airway epithelial cell line L2; assay: Cellular stability in L2 cells; assay type: in vitro ADME; conditions: 100 nM compound
Procedure: as §1, §2, §3

[4] = Plasma protein binding (human); assay type: in vitro ADME
Procedure: Plasma Protein Binding Assay
Plasma protein binding (PPB) was determined using Rapid Equilibrium Dialysis chambers with 8 kDa cut-off inserts (Fisher Scientific UK Ltd, Leicestershire, UK). Rat (Sprague Dawley strain) plasma EDTA K2 (pooled, mixed sex, SeraLab, West Sussex, UK) was centrifuged (13,000 x g, 10 min) to remove precipitates before addition of compounds (initial concentration 5 µM). Concentrations were determined by liquid chromatography-tandem mass spectrometry (LC-MS-MS) (AB Sciex 3200 QTrap) after 4 h incubation at 37 °C with binding being calculated from the concentration of compound in each chamber. Assays were performed in replicate and the data expressed as mean ± s.e.
Cellular Stability of Compounds […]
Kaighn’s modification of Ham’s F12 medium (F12K). Cells were prepared for assay by washing 3 times with serum-free F12K. NR8383 Airway macrophages were grown in suspension culture in F12K, collected by centrifugation, washed in serum-free medium and aliquoted into test plates (1.4 x 10^6 cells/well). Both cell lines were treated with ADI compounds (100 nM) in serum -free F12K in a 5% CO 2 environment at 37 […]
n-Octanol (0.7 mL), pre -saturated with 10 mM PBS, pH7.4, was added to test compound (~1 mg) in a 2 mL HPLC vial followed by PBS (0. 7 mL), which had been pre -saturated with n -octanol. […]

[5] = Plasma protein binding (rat); assay type: in vitro ADME
Procedure: Plasma protein binding (PPB) was determined using Rapid Equilibrium Dialysis chambers with 8 kDa cut-off inserts (Fisher Scientific UK Ltd, Leicestershire, UK). Rat (Sprague Dawley strain) plasma EDTA K2 (pooled, mixed sex, SeraLab, West Sussex, UK) was centrifuged (13,000 x g, 10 min) to remove precipitates before addition of compounds (initial concentration 5 M). Concentrations were determined by liquid chromatography-tandem mass spectrometry (LC-MS-MS) (AB Sciex 3200 QTrap) after 4 h incubation at 37 °C with binding being calculated from the concentration of compound in each chamber. Assays were performed in replicate and the data expressed as mean ± s.e.

[6] = single i.t. dose (15 μg/kg compound 1, 46 μg/kg compound 2), BAL 48 h

With `CC(C)[C@H](NC(=O)[C@H](C)NC(=O)[C@@H](NC(=O)C1CC[N+](C)(C)CC1)C(C)(C)C)C(=O)C(=O)NCc1ccccc1` [Compound 2, 4-{(S)-1-[(S)-1-((S)-1-benzylaminooxalyl-2-methyl-propylcarbamoyl)-ethylcarbamoyl]-2,2-dimethyl-propylcarbamoyl}-1,1-dimethyl-piperidinium formate] the neutrophil response (unsensitized BN rats; BAL performed 24 h after HDM extract challenge, dosed 2 h prior) was “clear inhibition”, the “inhibition of BAL monocytes/macrophages (significance)” value (unsensitized BN rats; dosing 120 min prior to challenge, 46 μg/kg i.t., BAL 48 h) was “significant” and the “performance in vivo (maximum inhibition of the eosinophil response, Figure 5A)” value (unsensitized BN rats; focused library, durability of inhibition studies) was “performed well”. For the same compound, the “effects on BAL neutrophils” value (unsensitized BN rats; intervening pretreatment intervals, BAL 48 h) was “insignificant”, the “effect on BAL neutrophils (significance)” value (unsensitized BN rats; pretreatment 60 min, 46 μg/kg i.t., BAL 48 h) was “significant” and the “effect on BAL neutrophils (significance)” value (unsensitized BN rats; pretreatment 360 min, 46 μg/kg i.t., BAL 48 h) was “significant”. For the same compound, the “effects on BAL neutrophils” value (unsensitized BN rats; short or long pretreatment intervals, BAL 48 h) was “inhibitory”, the “effect on BAL monocytes/macrophages” value (unsensitized BN rats; shorter pretreatment times, BAL 48 h) was “modest inhibition” and the “effect on eosinophils with 6–8 h separation of dose and challenge” value (unsensitized BN rats; [6]) was “substantial inhibition”. For the same compound, the “time of administration before challenge giving peak effects on eosinophils” value (unsensitized BN rats; [6]) was 2 h, the “changes in BAL cells after HDM challenge” value ([1]; HDM 10 (10 μg Der p 1) i.t. aerosol) was “attenuated” and the “BAL eosinophils after HDM challenge” value ([1]; HDM 10) was “eosinophil suppression”. The “BAL monocytes/macrophages after HDM challenge” value ([1]; HDM 10) was “No effects”, the “BAL neutrophil responses after HDM challenge” value ([1]; HDM 10) was “not significant” and the remaining at 2 h (plasma stability (rat)) was 100%. The remaining at 2 h (plasma stability (human)) was 100%, the solubility thermodynamic (thermodynamic solubility) was > 1600 µM and the hepatocyte half-life (rat hepatocytes) was “∞ (rat); ∞ (human)”. For the same compound, the hepatocyte half-life (human hepatocytes) was “∞ (rat); ∞ (human)”, the cell stability [2] was 100;100 and the half-life (Pharmacokinetics in rats; male, Sprague-Dawley, rat, plasma, po, 5 mg/kg, half-life, fed) was 18 min. For the same compound, the volume of distribution (Pharmacokinetics in rats) was 0.3 L/kg, the clearance (Pharmacokinetics in rats; fasted) was 19 (fasted) mL/min/kg and the cell stability [3] was 100;100. It also gave a fraction unbound at 4 h, 5 µM [4] of 0.37 and a plasma protein binding [5] of 61%.

Reference: paper PMC9469500, “Targeting an Initiator Allergen Provides Durable and Expansive Protection against House Dust Mite Allergy” (ACS Pharmacology & Translational Science, 2022)
